Experimental data from ChEMBL document CHEMBL1932964, “Lead optimisation of pyrazoles as novel FPR1 antagonists” (Bioorg Med Chem Lett, 2012).
Converted amounts (≈) assume the structure as drawn.

Tests used:
[1] = (§1) Fraction unbound in Sprague-Dawley rat plasma; assay type: ADME, cell-free; details: Sprague-Dawley
fMet-Leu-Phe receptor [2] = target: T1, fMet-Leu-Phe receptor (Homo sapiens, UniProt P21462); experiment: Antagonist activity at human recombinant FPR1 in expressed in HEK293 cells assessed as inhibition of FMLP-stimulated intracellular calcium mobilisation after 1 hr by FLIPR assay; assay type: functional, cell-based
T1 sequence (P21462 whole entry): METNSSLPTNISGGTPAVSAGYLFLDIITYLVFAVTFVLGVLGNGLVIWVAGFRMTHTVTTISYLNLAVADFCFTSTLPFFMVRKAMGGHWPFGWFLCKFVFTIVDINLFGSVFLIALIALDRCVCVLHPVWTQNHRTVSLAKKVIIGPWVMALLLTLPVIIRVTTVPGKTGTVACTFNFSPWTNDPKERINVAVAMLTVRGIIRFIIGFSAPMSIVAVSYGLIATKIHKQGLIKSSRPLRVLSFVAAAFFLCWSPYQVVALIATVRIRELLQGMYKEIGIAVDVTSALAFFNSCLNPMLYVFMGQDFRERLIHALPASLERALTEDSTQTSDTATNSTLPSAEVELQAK

Liver = experiment: Intrinsic clearance in rat liver microsomes assessed as media loss of parent compound per million cells
[3] = Clearance in Sprague-Dawley rat at 2 mg/kg, iv; details: in vivo
[4] = Intrinsic clearance in Sprague-Dawley rat hepatocytes assessed per 10^6 cells measured after 90 mins
[5] = target: T2, fMet-Leu-Phe receptor (Homo sapiens) (UniProt P21462); experiment: Antagonist activity at human recombinant FPR1 in expressed in HEK293 cells assessed as inhibition of FMLP-stimulated intracellular calcium mobilisation at 30 uM after 1 hr by FLIPR assay; assay type: functional, cell-based
T2 sequence (whole entry): T1 sequence (P21462 whole entry)

[6] = Thermodynamic solubility of compound by shake-flask technique; assay type: physicochemical; details: read-out: Therm_solubility
[7] = target: T3, Solute carrier organic anion transporter family member 1B1 (Homo sapiens, UniProt Q9Y6L6); experiment: Inhibition of OATP1B1 transporter
T3 sequence (Q9Y6L6 whole entry): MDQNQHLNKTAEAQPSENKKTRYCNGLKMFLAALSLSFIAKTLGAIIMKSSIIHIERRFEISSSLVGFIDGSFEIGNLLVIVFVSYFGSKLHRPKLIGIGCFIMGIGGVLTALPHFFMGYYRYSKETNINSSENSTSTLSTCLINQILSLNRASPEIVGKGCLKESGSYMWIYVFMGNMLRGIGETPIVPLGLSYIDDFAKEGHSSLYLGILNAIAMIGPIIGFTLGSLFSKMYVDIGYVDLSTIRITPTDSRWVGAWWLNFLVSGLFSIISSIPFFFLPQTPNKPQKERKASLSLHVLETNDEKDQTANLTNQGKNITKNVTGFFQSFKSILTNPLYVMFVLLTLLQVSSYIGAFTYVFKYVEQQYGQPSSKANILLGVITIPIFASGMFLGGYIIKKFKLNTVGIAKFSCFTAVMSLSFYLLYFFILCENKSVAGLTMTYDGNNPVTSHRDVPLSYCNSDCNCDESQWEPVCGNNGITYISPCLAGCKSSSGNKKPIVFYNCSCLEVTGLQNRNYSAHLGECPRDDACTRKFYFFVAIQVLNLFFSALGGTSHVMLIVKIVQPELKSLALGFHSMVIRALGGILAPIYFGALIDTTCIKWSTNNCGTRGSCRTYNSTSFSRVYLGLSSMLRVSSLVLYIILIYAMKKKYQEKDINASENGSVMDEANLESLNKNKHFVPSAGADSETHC

Plasma [8] = experiment: as §1; assay type: ADME, cell-free
Plasma [9] = experiment: (§2) Fraction unbound in human plasma; assay type: ADME, cell-free
[10] = Ratio of drug level in blood to plasma in Sprague-Dawley rat; assay type: ADME
[11] = Intrinsic clearance in human hepatocytes assessed per 10^6 cells measured after 90 mins
[12] = Volume of distribution at steady state in Sprague-Dawley rat at 2 mg/kg, iv; assay type: ADME, organism-based; set-up: dose 2 mg/kg, route intravenous; details: in vivo, read-out: Vdss
[13] = […] pKa of the compound; assay type: physicochemical
[14] = Oral bioavailability in Sprague-Dawley rat at 2 mg/kg; assay type: ADME, organism-based; details: in vivo
[15] = Half life in Sprague-Dawley rat at 2 mg/kg, iv; details: in vivo
[16] = Intrinsic clearance in human liver microsomes measured after 45 mins post NADPH addition
[17] = Time dependent inhibition of CYP; assay type: ADME
Cytochrome P450 2D6 = Cytochrome P450 2D6 (Homo sapiens, UniProt P10635); experiment: Inhibition of CYP2D6; assay type: ADME
Cytochrome P450 2D6, sequence (P10635 whole entry): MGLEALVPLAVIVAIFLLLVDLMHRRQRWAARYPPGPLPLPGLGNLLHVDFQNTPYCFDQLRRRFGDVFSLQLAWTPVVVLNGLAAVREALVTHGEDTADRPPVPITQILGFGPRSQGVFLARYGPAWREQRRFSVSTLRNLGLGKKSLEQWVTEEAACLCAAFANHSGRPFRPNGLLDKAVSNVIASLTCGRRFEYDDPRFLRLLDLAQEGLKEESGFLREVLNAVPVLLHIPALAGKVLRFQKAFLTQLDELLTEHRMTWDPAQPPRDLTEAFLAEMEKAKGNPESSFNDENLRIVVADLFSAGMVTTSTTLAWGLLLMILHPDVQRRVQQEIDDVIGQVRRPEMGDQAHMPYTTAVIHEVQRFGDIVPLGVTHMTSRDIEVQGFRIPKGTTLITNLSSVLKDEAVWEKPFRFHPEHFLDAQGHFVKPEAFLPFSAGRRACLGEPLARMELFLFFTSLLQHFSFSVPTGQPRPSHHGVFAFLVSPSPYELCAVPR

[18] = as §2; assay type: ADME, cell-free
Cytochrome P450 1A2 = target: T4, Cytochrome P450 1A2 (Homo sapiens, UniProt P05177); experiment: Inhibition of CYP1A2; assay type: ADME
T4 sequence (P05177 whole entry): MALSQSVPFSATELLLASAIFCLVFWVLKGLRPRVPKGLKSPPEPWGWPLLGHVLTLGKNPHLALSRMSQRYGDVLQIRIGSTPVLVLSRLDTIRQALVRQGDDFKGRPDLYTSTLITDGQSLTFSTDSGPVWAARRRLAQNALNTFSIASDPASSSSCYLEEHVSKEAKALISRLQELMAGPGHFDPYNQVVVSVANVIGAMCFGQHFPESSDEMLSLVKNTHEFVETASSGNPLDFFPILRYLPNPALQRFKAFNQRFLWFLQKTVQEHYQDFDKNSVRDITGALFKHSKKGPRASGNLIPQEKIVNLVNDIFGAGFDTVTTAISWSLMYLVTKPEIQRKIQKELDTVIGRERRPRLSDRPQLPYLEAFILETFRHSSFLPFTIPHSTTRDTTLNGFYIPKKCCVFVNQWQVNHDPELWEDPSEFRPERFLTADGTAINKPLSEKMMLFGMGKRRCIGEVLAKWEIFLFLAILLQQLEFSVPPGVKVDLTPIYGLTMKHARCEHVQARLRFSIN

fMet-Leu-Phe receptor [19] = target: T1, fMet-Leu-Phe receptor; experiment: Antagonist activity at FPR1 in human neutrophils assessed as AB/fMLF-stimulated upregulation of CD11b expression preincubated for 30 mins before AB/FMLF challenge measured after 50 mins using FITC staining by flow cytometry; assay type: functional; details: read-out: pA2 (converted)
THP-1 = experiment: Cytotoxicity against human THP1 cells; assay type: cell-based
Cytochrome P450 2C9 = Cytochrome P450 2C9 (Homo sapiens, UniProt P11712); experiment: Inhibition of CYP2C9; assay type: ADME
Cytochrome P450 2C9, sequence (P11712 whole entry): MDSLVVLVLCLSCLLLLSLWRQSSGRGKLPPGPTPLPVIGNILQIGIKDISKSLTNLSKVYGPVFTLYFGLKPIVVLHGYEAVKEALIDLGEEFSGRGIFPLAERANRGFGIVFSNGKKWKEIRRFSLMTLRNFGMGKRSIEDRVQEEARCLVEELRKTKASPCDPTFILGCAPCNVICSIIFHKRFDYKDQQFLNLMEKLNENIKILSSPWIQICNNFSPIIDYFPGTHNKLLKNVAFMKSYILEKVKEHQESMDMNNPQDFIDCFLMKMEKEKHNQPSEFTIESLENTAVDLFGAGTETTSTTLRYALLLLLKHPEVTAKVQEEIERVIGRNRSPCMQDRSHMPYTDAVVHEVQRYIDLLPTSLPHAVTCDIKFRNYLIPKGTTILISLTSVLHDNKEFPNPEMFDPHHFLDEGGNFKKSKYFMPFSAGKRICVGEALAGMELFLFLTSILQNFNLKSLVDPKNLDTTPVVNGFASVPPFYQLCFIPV

[20] = Distribution coefficient, log D of compound; assay type: physicochemical; details: octanol/water
Cytochrome P450 2C19 = Cytochrome P450 2C19 (Homo sapiens, UniProt P33261); experiment: Inhibition of CYP2C19; assay type: ADME
Cytochrome P450 2C19, sequence (P33261 whole entry): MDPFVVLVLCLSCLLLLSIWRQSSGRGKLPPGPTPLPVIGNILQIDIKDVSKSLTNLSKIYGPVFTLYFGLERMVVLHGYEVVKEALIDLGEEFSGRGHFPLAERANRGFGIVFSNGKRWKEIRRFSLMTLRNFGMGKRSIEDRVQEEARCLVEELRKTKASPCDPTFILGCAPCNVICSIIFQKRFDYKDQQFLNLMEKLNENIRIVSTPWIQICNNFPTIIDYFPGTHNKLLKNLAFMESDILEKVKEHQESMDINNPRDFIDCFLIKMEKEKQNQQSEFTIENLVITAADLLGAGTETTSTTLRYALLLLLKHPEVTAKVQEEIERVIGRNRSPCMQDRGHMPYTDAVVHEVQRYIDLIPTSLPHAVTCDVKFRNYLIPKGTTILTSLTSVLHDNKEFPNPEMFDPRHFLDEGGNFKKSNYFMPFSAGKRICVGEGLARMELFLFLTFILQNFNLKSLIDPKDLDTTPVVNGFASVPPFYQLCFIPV

Cytochrome P450 3A4 = Cytochrome P450 3A4 (Homo sapiens, UniProt P08684); experiment: Inhibition of CYP3A4; assay type: ADME
Cytochrome P450 3A4, sequence (P08684 whole entry): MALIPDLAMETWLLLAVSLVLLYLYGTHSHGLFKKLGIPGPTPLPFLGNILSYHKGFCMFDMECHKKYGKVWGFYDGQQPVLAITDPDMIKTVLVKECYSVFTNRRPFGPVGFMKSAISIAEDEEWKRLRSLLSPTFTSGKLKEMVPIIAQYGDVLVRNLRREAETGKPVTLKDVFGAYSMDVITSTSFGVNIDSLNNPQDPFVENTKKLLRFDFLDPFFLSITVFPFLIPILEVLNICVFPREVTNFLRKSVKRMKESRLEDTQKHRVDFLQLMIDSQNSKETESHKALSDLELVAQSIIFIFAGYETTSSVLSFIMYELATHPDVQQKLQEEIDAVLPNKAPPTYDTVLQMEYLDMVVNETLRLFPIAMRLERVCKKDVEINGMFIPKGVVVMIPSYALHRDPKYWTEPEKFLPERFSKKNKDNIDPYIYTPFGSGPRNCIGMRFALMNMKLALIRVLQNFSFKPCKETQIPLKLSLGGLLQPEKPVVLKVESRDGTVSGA

[21] = Plasma clearance in bile duct cannulated Sprague-Dawley rat; assay type: ADME, organism-based

Cc1ccc(S(=O)(=O)Nc2c(C(=O)N[C@@H](C)C(C)(C)C)c(C)nn2C(C)C)cc1
fraction unbound [1]: 0.04 | IC50 (fMet-Leu-Phe receptor [2]): 1000 nM | CLH (Liver): 7.8 µL/min | clearance [3]: 4 mL/min/kg | hepatocyte CLint at […] [4]: < 6 µL/min/1e6 cells

COCCC(C)n1nc(C)c(C(=O)N[C@@H](C)C(C)(C)C)c1NS(=O)(=O)c1ccc(C)cc1 (some centres not stated)
IC50 (fMet-Leu-Phe receptor [2]): 316 nM | hepatocyte CLint at […] [4]: 10 µL/min/1e6 cells

CCC(CC)n1nc(C)c(C(=O)N[C@@H](C)C(C)(C)C)c1NS(=O)(=O)c1ccc(C)cc1
IC50 (fMet-Leu-Phe receptor [2]): 398 nM

CO[C@H]1CC[C@H](n2nc(C)c(C(=O)N[C@@H](C)C(C)(C)C)c2NS(=O)(=O)c2ccc(C)cc2)CC1
inhibition [5]: < 30%

COCC(C)n1nc(C)c(C(=O)N[C@@H](C)C(C)(C)C)c1NS(=O)(=O)c1ccc(C)cc1 (some centres not stated)
IC50 (fMet-Leu-Phe receptor [2]): 2510 nM | hepatocyte CLint at […] [4]: < 3 µL/min/1e6 cells

Cc1ccc(S(=O)(=O)Nc2c(C(=O)N[C@@H](C)C(C)(C)C)c(C)nn2C2CCS(=O)(=O)CC2)cc1
IC50 (fMet-Leu-Phe receptor [2]): 10000 nM

Cc1ccc(S(=O)(=O)Nc2c(C(=O)N[C@@H](C)C(C)(C)C)c(C)nn2-c2ccccc2)cc1
solubility thermodynamic [6]: 1030 µM (≈ 468 µg/mL) | IC50 [7]: 7940 nM | Fu (Plasma [8]): 1.1% | Fu (Plasma [9]): 4.2% | CLH (Liver): 412 µL/min | blood plasma ratio [10]: 0.7 | hepatocyte CLint at […] [11]: 7 µL/min/1e6 cells | clearance [3]: 42 mL/min/kg | Vd [12]: 0.45 L/kg | pKa [13]: 3.9 | bioavailability [14]: 19% | half-life [15]: 15 min | microsomal CLint at 0.75 h [16]: 40 µL/min/mg

Cc1ccc(S(=O)(=O)Nc2c(C(=O)N[C@@H](C)C(C)(C)C)c(C)nn2C2CCC2)cc1
IC50 (fMet-Leu-Phe receptor [2]): 200 nM | hepatocyte CLint at […] [4]: 17 µL/min/1e6 cells

Cc1nn(C2CCOCC2)c(NS(=O)(=O)c2ccc(C3CC3)cc2)c1C(=O)N[C@@H](C)C(C)(C)C
pIC50 [17]: < 5 | IC50 (Cytochrome P450 2D6): > 10000 nM | solubility thermodynamic [6]: > 2800 µM | fraction unbound [1]: 0.111 | fraction unbound [18]: 0.075 | IC50 (fMet-Leu-Phe receptor [2]): 158 nM | IC50 (Cytochrome P450 1A2): > 10000 nM | Vd [12]: 0.5 L/kg | Kb (fMet-Leu-Phe receptor [19]): 794 nM | IC50 (THP-1): > 50100 nM | IC50 (Cytochrome P450 2C9): > 10000 nM | logD [20]: 1.2 | IC50 (Cytochrome P450 2C19): > 10000 nM | IC50 (Cytochrome P450 3A4): > 10000 nM | bioavailability [14]: 83%

Cc1ccc(S(=O)(=O)Nc2c(C(=O)N[C@@H](C)C(C)(C)C)c(C)nn2C2CCCC2)cc1
IC50 (fMet-Leu-Phe receptor [2]): 79.4 nM | CLH (Liver): 12 µL/min | hepatocyte CLint at […] [4]: 8 µL/min/1e6 cells

Cc1ccc(S(=O)(=O)Nc2c(C(=O)N[C@@H](C)C(C)(C)C)c(C)nn2C2CCOCC2)cc1
IC50 (fMet-Leu-Phe receptor [2]): 316 nM

CO[C@H]1CC[C@@H](n2nc(C)c(C(=O)N[C@@H](C)C(C)(C)C)c2NS(=O)(=O)c2ccc(C)cc2)CC1
pIC50 [17]: < 5 | IC50 (Cytochrome P450 2D6): > 10000 nM | fraction unbound [1]: 0.1 | fraction unbound [18]: 0.073 | IC50 (fMet-Leu-Phe receptor [2]): 3.98 nM | IC50 (Cytochrome P450 1A2): > 10000 nM | hepatocyte CLint at […] [11]: 3.6 µL/min/1e6 cells | clearance [3]: 5.5 mL/min/kg | Vd [12]: 1.2 L/kg | Kb (fMet-Leu-Phe receptor [19]): 20 nM | hepatocyte CLint at […] [4]: 3 µL/min/1e6 cells | IC50 (THP-1): > 50100 nM | IC50 (Cytochrome P450 2C9): > 10000 nM | logD [20]: 1.3 | IC50 (Cytochrome P450 2C19): > 10000 nM | IC50 (Cytochrome P450 3A4): > 10000 nM | bioavailability [14]: 80% | half-life [15]: 168 min | microsomal CLint at 0.75 h [16]: 8 µL/min/mg

Cc1ccc(S(=O)(=O)Nc2c(C(=O)N[C@@H](C)C(C)(C)C)c(C)nn2C(C)(C)C)cc1
IC50 (fMet-Leu-Phe receptor [2]): 1580 nM | hepatocyte CLint at […] [4]: 53 µL/min/1e6 cells

Cc1ccc(S(=O)(=O)Nc2c(C(=O)N[C@@H](C)C(C)(C)C)c(C)nn2C2CCSCC2)cc1
IC50 (fMet-Leu-Phe receptor [2]): 39.8 nM

Cc1ccc(S(=O)(=O)Nc2c(C(=O)N[C@@H](C)C(C)(C)C)c(C)nn2C2CCCCC2)cc1
IC50 (fMet-Leu-Phe receptor [2]): 31.6 nM | CLH (Liver): 23 µL/min | hepatocyte CLint at […] [4]: 8 µL/min/1e6 cells

Cc1ccc(S(=O)(=O)Nc2c(C(=O)N[C@@H](C)C(C)(C)C)c(C)nn2C2CCN(CC(F)(F)F)CC2)cc1
IC50 (fMet-Leu-Phe receptor [2]): 3160 nM

Cc1ccc(S(=O)(=O)Nc2c(C(=O)N[C@@H](C)C(C)(C)C)c(C)nn2CC(F)(F)F)cc1
IC50 (fMet-Leu-Phe receptor [2]): 3160 nM | CLH (Liver): 18 µL/min | hepatocyte CLint at […] [4]: 74 µL/min/1e6 cells

Cc1ccc(S(=O)(=O)Nc2c(C(=O)N[C@@H](C)C(C)(C)C)c(C)nn2C2CCOC2)cc1 (some centres not stated)
IC50 (fMet-Leu-Phe receptor [2]): 1000 nM

Cc1ccc(S(=O)(=O)Nc2c(C(=O)N[C@@H](C)C(C)(C)C)c(C)nn2C2CCN(C)CC2)cc1
inhibition [5]: < 30%

CCC(CC)NC(=O)c1c(C)nn(C(C)C)c1NS(=O)(=O)c1ccc(C)cc1
IC50 (fMet-Leu-Phe receptor [2]): 25100 nM

Cc1nn(-c2ccc(F)cc2)c(NS(=O)(=O)c2ccc(C#N)cc2)c1C(=O)N[C@@H](C)C(C)(C)C
solubility thermodynamic [6]: > 2010 µM | fraction unbound [1]: 0.043 | fraction unbound [18]: 0.08 | CLH (Liver): 33 µL/min | blood plasma ratio [10]: 0.7 | hepatocyte CLint at […] [11]: < 3 µL/min/1e6 cells | clearance [3]: 42 mL/min/kg | Vd [12]: 0.23 L/kg | hepatocyte CLint at […] [4]: < 4 µL/min/1e6 cells | pKa [13]: 3 | clearance [21]: 21 mL/min/kg | bioavailability [14]: 5% | half-life [15]: 36 min | microsomal CLint at 0.75 h [16]: 5 µL/min/mg
